Data: patent US20250213571A1, “TYK2 INHIBITORS AND USES THEREOF” (Alumis Inc., priority 2022, published 2025)
Structures can show the parent of a compound that is named as a salt.

Molecular target: TYK2 JH1 (Homo sapiens (Human), UniProt P29597)
Assay: TYK2 JH1 binding (Kd, Table 2)
Conditions: JH1 domain

Sequence of TYK2 JH1 (P29597 897-1176): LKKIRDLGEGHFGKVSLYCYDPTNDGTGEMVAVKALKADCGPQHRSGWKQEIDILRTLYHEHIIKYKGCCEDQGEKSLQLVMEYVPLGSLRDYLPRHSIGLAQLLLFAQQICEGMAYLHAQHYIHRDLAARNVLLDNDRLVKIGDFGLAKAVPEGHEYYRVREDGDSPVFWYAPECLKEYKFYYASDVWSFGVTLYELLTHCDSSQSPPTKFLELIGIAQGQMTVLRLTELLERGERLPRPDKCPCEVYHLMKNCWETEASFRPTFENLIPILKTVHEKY

Row | Structure (SMILES) | Kd
1 | CNc1cc2nn3c(cnc13)C(=O)N[C@H](C)COCc1cc(cc3[nH]ncc13)N2 [Compound 96, (14R)-14-methyl-21-(methylamino)-12-oxa-2,6,7,15,19,23,24-heptaazapentacyclo[15.5.2.1^(3,10.0^(5,9.0^(20,24]pentacosa-1(23),3(25),4,7,9,17,19,21-octaen-16-one hydrochloride] | 1000 to 10000 nM
2 | CNc1cc2nc3c(cnn13)C(=O)N[C@H](C)COCc1cc(c3nn(C)cc3c1)N2 [Compound 35] | ≥ 30000 nM

Molecular target: human TYK2 (JH2domain-pseudokinase) (Homo sapiens (Human), UniProt P29597)
Sequence (P29597 556-888): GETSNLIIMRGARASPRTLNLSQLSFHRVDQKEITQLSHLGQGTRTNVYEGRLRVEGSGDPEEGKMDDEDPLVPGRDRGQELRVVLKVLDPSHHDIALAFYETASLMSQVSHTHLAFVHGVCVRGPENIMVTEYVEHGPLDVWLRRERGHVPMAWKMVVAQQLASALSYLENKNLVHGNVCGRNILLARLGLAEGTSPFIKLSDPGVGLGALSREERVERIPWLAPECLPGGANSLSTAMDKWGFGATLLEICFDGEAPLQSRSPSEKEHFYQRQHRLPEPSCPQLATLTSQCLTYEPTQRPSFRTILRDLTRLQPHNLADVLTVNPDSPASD
Assay: TYK2 JH2 domain binding assay (KINOMEscan)
Conditions: not given
Description: Binding constants for the compounds described herein against the JH2 domain were determined by the following protocol for a KINOMEscan® assay (DiscoveRx). A fusion protein of a partial length construct of human TYK2 (JH2domain-pseudokinase) (amino acids G556 to D888 based on reference sequence NP_003322.3) and the DNA binding domain of NFkB was expressed in transiently transfected HEK293 cells. From these HEK 293 cells, extracts were prepared in M-PER extraction buffer (Pierce) in the presence of Protease Inhibitor Cocktail Complete (Roche) and Phosphatase Inhibitor Cocktail Set II (Merck) per manufacturers' instructions. The TYK2 (JH2domain-pseudokinase) fusion protein was labeled with a chimeric double-stranded DNA tag containing the NFkB binding site fused to an amplicon for qPCR readout, which was added directly to the expression extract (the final concentration of DNA-tag in the binding reaction is 0.1 nM).
Streptavidin-coated magnetic beads (Dynal M280) were treated with a biotinylated small molecule ligand for 30 minutes at room temperature to generate affinity resins the binding assays. The liganded beads were blocked with excess biotin and washed with blocking buffer (SeaBlock (Pierce), 1% BSA, 0.05% Tween 20, 1 mM DTT) to remove unbound ligand and to reduce nonspecific binding.
The binding reaction was assembled by combining 16 μl of DNA-tagged kinase extract, 3.8 μl liganded affinity beads, and 0.18 μl test compound (PBS/0.05% Tween 20/10 mM DTT/0.1% BSA/2 μg/ml sonicated salmon sperm DNA)]. Extracts were used directly in binding assays without any enzyme purification steps at a ≥10,000-fold overall stock dilution (final DNA-tagged enzyme concentration <0.1 nM). Extracts were loaded with DNA-tag and diluted into the binding reaction in a two-step process. First extracts were diluted 1:100 in 1×binding buffer (PBS/0.05% Tween 20/10 mM DTT/0.1% BSA/2 […] sonicated salmon sperm DNA) containing 10 nM DNA-tag. This dilution was allowed to equilibrate at room temperature for 15 minutes and then subsequently diluted 1:100 in 1× binding buffer. Test compounds were prepared as 111× stocks in 100% DMSO. Kds were determined using an 11-point 3-fold compound dilution series with three DMSO control points. All compounds for Kd measurements were distributed by acoustic transfer (non-contact dispensing) in 100% DMSO. The compounds were then diluted directly into the assays such that the final concentration of DMSO was 0.9%. All reactions were performed in polypropylene 384-well plates. Each was a final volume of 0.02 mL. Assays were incubated with shaking for 1 hour at room temperature. Then the beads were pelleted and washed with wash buffer (1×PBS, 0.05% Tween 20) to remove displaced kinase and test compound. The washed based were resuspended in elution buffer (1 λPBS, 0.05% Tween […] non-biotinylated affinity ligand) and incubated at room temperature with shaking for 30 minutes. The kinase concentration in the eluates was measured by qPCR. qPCR reactions were assembled by adding 2.5 μL of kinase eluate to 7.5 μL of qPCR master mix containing […] amplicon primers and 0.15 μM amplicon probe. The qPCR protocol consisted of a 10 minute hot start at 95° C., followed by 35 cycles of 95° C. for 15 seconds, 60° C. for 1 minute.
Test compounds were prepared as 111× stocks in 100% DMSO. Kds were determined using an 11-point 3-fold compound dilution series with three DMSO control points. All compounds for Kd measurements were distributed by acoustic transfer (non-contact dispensing) in 100% DMSO. The compounds were then diluted directly into the assays such that the final concentration of DMSO was 0.9%. The Kds were determined using a compound top concentration of 30,000 nM. Kd measurements were performed in duplicate.
Binding constants (Kds) were calculated with a standard dose-response curve using the Hill equation: […]
The Hill Slope was set to −1. […]

Row | Structure (SMILES) | Kd
3 | CNc1nc2cn3c(cnc13)C(=O)N[C@H](C)COCc1cc(c3nnn(C)c3c1)N2 [Compound 76] | 1000 to 10000 nM
4 | C[C@@H]1COCc2cc(c3nnn(C)c3c2)Nc2cn3c(cnc3cn2)C(=O)N1 [Compound 77] | 1000 to 10000 nM
5 | C[C@@H]1COCc2cc(c3nnn(C)c3c2)Nc2ccc3ncc(n3c2)C(=O)N1 [Compound 71] | 10 to 1000 nM
6 | CNc1cc2nn3c(cnc13)C(=O)N[C@H](C)COc1cccc3ncc(cc13)N2 [Compound 64] | < 10 nM
7 | CNc1cc2nn3c(cnc13)C(=O)N[C@H](C)COc1cccc3ccc(nc13)N2 [Compound 69] | < 10 nM
8 | CNc1cc2nn3c(cnc13)C(=O)N[C@H](C)COc1ncnc3cc(OC)c(cc13)N2 [Compound 56] | < 10 nM
9 | CNc1cc2nn3c(cnc13)C(=O)N[C@H](C)CNc1ncnc3ccc(cc13)N2 [Compound 66] | < 10 nM
10 | CNc1cc2nn3c(cnc13)C(=O)N[C@H](C)COc1cncc3ccc(cc13)N2 [Compound 68] | < 10 nM
11 | Cc1nc2ccc3cn2c1C(=O)N[C@H](C)COCc1cc(c2nnn(C)c2c1)N3 [Compound 75] | 10 to 1000 nM
12 | CNc1cc2nn3c(cnc13)C(=O)N[C@H](C)CS(=O)(=O)Cc1cc(c3nnn(C)c3c1)N2 [Compound 57] | < 10 nM
13 | Cc1nc2ccc3nn2c1C(=O)N[C@H](C)COCc1cc(c2nnn(C)c2c1)N3 [Compound 67] | < 10 nM
14 | CNc1nc2nc3c(nn(C)c13)C(=O)N[C@H](C)COCc1cc(c3nnn(C)c3c1)N2 [Compound 65] | < 10 nM

Next, values leading:

Row | Kd | Structure (SMILES)
15 | < 10 nM | CNc1cc2nn3c(cnc13)C(=O)N[C@H](C)COCc1cc(cc3[nH]ncc13)N2 [Compound 96, (14R)-14-methyl-21-(methylamino)-12-oxa-2,6,7,15,19,23,24-heptaazapentacyclo[15.5.2.1^(3,10.0^(5,9.0^(20,24]pentacosa-1(23),3(25),4,7,9,17,19,21-octaen-16-one hydrochloride]
16 | < 10 nM | CNc1cc2nn3c(cnc13)C(=O)N[C@H](C)C[S+]([O-])Cc1cc(c3nnn(C)c3c1)N2 (stereo partly drawn) [Compound 58]
17 | < 10 nM | CNc1cc2nc3c(cnn13)C(=O)N[C@H](C)COCc1cc(c3nn(C)cc3c1)N2 [Compound 35]
18 | < 10 nM | CNc1cc2nn3c(cnc13)C(=O)N[C@H](C)COc1nccc3ccc(cc13)N2 [Compound 62]
19 | < 10 nM | CNc1cc2nn3c(cnc13)C(=O)N[C@H](C)COCc1cc(cn3ccnc13)N2 [Compound 99, (14R)-14-methyl-21-(methylamino)-12-oxa-2,5,8,15,19,23,24-heptaazapentacyclo[15.5.2.1^(3,10.0^(5,9.0^(20,24]pentacosa-1(23),3,6,8,10(25),17,19,21-octaen-16-one hydrochloride]
20 | < 10 nM | CNc1cc2nn3c(cnc13)C(=O)N[C@H](C)COc1ccnc3cnc(cc13)N2 [Compound 63, (12R)-12-methyl-24-(methylamino)-14-oxa-2,4,5,7,11,18,21-heptaazapentacyclo[13.6.2.2^(3,6.0^(5,9.0^(19,23]pentacosa-1(22),3,6,8,15,17,19(23),20,24-nonaen-10-one hydrochloride]
21 | < 10 nM | CNc1nc2nc3c(n[nH]c13)C(=O)N[C@H](C)COCc1cc(c3nnn(C)c3c1)N2 [Compound 59]
22 | < 10 nM | CNc1cc2nn3c(cnc13)C(=O)N[C@H](C)CNc1ccnc3ccc(cc13)N2 [Compound 61, (12R)-12-methyl-24-(methylamino)-2,4,5,7,11,14,18-heptaazapentacyclo[13.6.2.2^{3,6}0.^{5,9}0.^{19,23}]pentacosa-1(21),3,6,8,15,17,19,22,24-nonaen-10-one]
23 | < 10 nM | C[C@@H]1COCc2cc(c3nnn(C)c3c2)Nc2ccn3ncc(c3n2)C(=O)N1 [Compound 54]
24 | < 10 nM | CNc1nc2nc3c(n(C)nc13)C(=O)N[C@H](C)COCc1cc(c3nnn(C)c3c1)N2 [Compound 70]
25 | < 10 nM | CNc1cc2nn3c(cnc13)C(=O)N[C@H](C)CSCc1cc(c3nnn(C)c3c1)N2 [Compound 55]

Molecular target: JAK1 JH2 (Homo sapiens (Human), UniProt P23458)
Sequence (P23458 583-855): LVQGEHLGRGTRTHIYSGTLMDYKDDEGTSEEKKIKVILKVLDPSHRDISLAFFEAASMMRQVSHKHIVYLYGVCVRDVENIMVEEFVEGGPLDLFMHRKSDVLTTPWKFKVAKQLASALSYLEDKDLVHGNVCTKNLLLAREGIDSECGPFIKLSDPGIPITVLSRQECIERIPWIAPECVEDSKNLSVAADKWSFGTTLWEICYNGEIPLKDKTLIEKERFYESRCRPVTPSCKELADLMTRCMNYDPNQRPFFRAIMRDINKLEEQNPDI
Assay: JAK1 JH2 binding (Kd, Table 2)
Conditions: JH2 domain

Row | Structure (SMILES) | Kd
26 | CNc1cc2nn3c(cnc13)C(=O)N[C@H](C)COCc1cc(cc3[nH]ncc13)N2 [Compound 96, (14R)-14-methyl-21-(methylamino)-12-oxa-2,6,7,15,19,23,24-heptaazapentacyclo[15.5.2.1^(3,10.0^(5,9.0^(20,24]pentacosa-1(23),3(25),4,7,9,17,19,21-octaen-16-one hydrochloride] | 10 to 1000 nM
27 | CNc1cc2nc3c(cnn13)C(=O)N[C@H](C)COCc1cc(c3nn(C)cc3c1)N2 [Compound 35] | 10 to 1000 nM
